These results are taken from ChEMBL document CHEMBL1201862, “PubChem BioAssay data set” (2004).

For assay [1], the target named is Peroxisome proliferator-activated receptor gamma/Nuclear receptor coactivator 3 (Homo sapiens, UniProt P37231). Put plainly: TR-FRET dose response biochemical High Throughput Screening assay for agonists of the steroid receptor coactivator 3 (SRC-3) recruitment by the peroxisome proliferator-activated receptor gamma (PPAR gamma): non-selective agonists. [Related pubchem assays: 1301 (Confirmation screen.), 1048 (Primary screen.)]. The assay is classed as functional.

Assay [2] addresses T1, Mannose-6-phosphate isomerase (Homo sapiens, UniProt P34949).
T1 sequence (P34949 whole entry): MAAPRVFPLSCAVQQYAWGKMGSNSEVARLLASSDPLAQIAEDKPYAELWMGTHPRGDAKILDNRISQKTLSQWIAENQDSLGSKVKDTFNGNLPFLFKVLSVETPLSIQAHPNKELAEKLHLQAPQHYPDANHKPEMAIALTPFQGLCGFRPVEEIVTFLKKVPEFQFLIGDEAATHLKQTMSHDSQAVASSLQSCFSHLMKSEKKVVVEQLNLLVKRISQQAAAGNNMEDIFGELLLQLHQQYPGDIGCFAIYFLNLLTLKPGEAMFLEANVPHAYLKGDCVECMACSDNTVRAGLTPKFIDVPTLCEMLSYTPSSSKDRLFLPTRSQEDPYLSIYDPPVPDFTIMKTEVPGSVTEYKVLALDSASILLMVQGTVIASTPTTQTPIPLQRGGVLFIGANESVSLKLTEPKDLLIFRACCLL
Kind of assay: MPI inhibition at elevated mannose 6-phosphate – biochemical, fluorescence intensity, high mannose 6-phosphate, primary screen (AID 1220).

The target of assay [3] is T2, Apoptotic protease-activating factor 1 (Homo sapiens, UniProt O14727).
T2 sequence (O14727 whole entry): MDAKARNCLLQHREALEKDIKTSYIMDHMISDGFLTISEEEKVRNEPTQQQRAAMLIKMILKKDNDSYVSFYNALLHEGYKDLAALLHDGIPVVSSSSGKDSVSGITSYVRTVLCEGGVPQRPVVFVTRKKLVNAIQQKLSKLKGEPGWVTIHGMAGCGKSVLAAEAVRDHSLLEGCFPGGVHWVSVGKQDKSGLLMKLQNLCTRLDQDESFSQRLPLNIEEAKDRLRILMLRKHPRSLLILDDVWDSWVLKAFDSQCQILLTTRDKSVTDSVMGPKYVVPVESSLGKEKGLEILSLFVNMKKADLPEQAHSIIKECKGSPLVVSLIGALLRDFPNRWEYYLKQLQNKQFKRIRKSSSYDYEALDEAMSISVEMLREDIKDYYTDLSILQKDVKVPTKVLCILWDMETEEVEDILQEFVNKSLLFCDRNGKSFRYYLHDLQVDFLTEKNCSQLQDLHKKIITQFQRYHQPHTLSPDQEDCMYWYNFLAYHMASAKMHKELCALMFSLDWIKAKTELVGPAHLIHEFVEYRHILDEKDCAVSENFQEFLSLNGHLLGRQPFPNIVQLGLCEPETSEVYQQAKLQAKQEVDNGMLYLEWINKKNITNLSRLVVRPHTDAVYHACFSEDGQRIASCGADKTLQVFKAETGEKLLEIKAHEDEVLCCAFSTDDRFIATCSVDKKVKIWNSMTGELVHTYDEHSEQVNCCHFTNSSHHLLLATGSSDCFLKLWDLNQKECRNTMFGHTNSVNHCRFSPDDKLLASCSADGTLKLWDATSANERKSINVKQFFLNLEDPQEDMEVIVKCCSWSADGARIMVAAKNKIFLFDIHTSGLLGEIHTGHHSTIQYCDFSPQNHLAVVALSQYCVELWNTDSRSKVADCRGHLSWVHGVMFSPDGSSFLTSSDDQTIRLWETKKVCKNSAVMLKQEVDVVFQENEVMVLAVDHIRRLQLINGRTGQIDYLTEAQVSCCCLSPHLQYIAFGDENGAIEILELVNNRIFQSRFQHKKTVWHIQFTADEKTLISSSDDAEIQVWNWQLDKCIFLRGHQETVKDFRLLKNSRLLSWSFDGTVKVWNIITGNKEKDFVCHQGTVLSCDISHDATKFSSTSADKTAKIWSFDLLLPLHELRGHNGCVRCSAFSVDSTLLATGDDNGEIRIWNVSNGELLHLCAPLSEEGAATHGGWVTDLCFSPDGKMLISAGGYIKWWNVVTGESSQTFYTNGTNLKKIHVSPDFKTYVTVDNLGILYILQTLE
The assay is classed as functional.

The nature of assay [4]: blockers of HIV-1 ZM109 envelope-driven cell-cell fusion – HeLa effector, CEM target cells, luciferase, cherry-pick, dose response (AID 652058).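 Also: luciferase signal from HIV-1 Env mediated cell-cell fusion of effector and target cells.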 The assay is classed as functional, cell-based.
The next assay relates to Vero. Kind of assay: cells. The assay is classed as functional. The settings on record: Chlorocebus sabaeus.
Assay [5] can be described thus: alpha-synuclein stem-loop luciferase translation blockers – H4 neuroglioma cells, luminescence, confirmation (AID 1988). The assay is classed as functional, cell-based.
Assay [6] in a line: Luminescence-based counterscreen assay for KLF5 inhibitors: dose response cell-based high throughput screening assay to identify cytotoxic compounds using the IEC-6 intestinal epithelial cell line. [Related pubchem assays: 1700 (Primary screen.), 1834 (Confirmation screen.), 1858 (Summary AID.), 1905 (Counterscreen.)]. The assay is classed as functional.

Usually EC50 stands for the concentration that produces a half-maximal response. One may read the IC50 as the midpoint of a concentration-inhibition curve. Usually AC50 stands for the concentration at which the activity in the assay is half-maximal. One may read the CC50 as the concentration giving 50% cytotoxicity.

Structures are written as SMILES. Calls of active or inactive are those of the source.

Sequence of Peroxisome proliferator-activated receptor gamma/Nuclear receptor coactivator 3 (P37231 whole entry): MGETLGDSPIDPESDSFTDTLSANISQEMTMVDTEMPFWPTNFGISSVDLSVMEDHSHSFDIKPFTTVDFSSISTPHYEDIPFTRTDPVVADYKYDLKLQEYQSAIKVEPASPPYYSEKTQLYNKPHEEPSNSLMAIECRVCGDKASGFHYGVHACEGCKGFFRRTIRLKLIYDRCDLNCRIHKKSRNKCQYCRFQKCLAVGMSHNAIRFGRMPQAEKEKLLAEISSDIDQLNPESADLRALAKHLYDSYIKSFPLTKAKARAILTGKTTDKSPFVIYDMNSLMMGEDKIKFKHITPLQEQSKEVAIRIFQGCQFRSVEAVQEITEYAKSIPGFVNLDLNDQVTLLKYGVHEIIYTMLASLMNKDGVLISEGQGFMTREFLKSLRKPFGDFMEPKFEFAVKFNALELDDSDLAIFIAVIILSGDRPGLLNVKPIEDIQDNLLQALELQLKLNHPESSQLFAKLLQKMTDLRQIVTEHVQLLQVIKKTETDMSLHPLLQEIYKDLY
Sequence of Peroxisome proliferator-activated receptor gamma/Nuclear receptor coactivator 3 (Q9Y6Q9 whole entry, further chain): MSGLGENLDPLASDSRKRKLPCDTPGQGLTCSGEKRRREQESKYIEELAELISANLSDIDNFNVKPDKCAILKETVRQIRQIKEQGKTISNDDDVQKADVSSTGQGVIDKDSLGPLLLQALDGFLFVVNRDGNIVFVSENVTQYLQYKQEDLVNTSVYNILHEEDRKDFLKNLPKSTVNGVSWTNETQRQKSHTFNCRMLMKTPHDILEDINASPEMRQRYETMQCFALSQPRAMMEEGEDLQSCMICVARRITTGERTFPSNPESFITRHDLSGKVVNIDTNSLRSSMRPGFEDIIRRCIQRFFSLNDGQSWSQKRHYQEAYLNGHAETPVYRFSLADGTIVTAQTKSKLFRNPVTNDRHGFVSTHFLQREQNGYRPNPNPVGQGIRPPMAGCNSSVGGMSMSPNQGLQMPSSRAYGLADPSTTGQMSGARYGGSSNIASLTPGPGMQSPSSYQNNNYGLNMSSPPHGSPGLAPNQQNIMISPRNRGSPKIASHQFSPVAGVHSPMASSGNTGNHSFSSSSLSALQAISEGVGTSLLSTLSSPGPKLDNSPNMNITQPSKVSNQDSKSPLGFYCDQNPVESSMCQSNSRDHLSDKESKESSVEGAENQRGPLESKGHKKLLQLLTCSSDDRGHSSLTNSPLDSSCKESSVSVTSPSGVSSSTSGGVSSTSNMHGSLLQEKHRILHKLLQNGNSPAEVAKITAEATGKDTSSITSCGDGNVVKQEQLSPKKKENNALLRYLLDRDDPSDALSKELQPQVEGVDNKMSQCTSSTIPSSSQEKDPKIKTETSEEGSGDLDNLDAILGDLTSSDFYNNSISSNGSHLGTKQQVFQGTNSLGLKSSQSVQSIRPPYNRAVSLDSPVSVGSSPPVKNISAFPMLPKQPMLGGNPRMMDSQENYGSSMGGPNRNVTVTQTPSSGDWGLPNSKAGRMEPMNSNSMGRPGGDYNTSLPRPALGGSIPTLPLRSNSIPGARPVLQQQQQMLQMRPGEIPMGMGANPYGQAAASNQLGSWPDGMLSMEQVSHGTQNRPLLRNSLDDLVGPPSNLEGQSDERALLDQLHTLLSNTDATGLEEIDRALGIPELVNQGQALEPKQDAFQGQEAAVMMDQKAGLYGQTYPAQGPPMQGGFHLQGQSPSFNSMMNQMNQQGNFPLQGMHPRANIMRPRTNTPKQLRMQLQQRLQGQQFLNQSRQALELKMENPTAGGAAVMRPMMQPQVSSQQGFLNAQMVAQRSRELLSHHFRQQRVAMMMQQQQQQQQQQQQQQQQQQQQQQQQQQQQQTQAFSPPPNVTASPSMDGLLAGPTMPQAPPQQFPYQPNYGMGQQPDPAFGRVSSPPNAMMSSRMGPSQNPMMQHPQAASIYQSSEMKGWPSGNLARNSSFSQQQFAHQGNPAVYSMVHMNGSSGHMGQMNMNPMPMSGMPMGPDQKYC

For the compound `[O-][N+]1=c2ccc(Nc3ccccc3)cc2=NC12CCCCC2`, in assay [1], the EC50 is listed as > 79.4 µM (not active). The IC50 in assay [2] is 48.2 µM (active). Turning to `CCc1ccc(S(=O)(=O)/N=C2\C=C(Nc3ccc(C(=O)O)cc3)C(=O)c3ccccc32)cc1`, the IC50 in assay [3] is 9.6 µM (active). Further, in assay [4], the AC50 was 6.74 µM (active). Consider `Oc1c(C(c2ccccc2Cl)N2CCCC2)ccc2cccnc12` (configuration not stated), for which the CC50 in the assay with Vero is 17.1 µM (active). As for `COc1cccc(/C=N/Nc2ccc([N+](=O)[O-])cn2)c1O`, in assay [5], the EC50 is 0.54 µM (active). Also, the IC50 in assay [6] was 16.2 µM (not active).
